Data published in patent publication US10703757B2, “Compounds and methods for CDK8 modulation and indications therefor” (Plexxikon Inc., priority 2016, dated 2020).

System: CDK8 (phosphorylation of STAT1 at serine 727 in A549 cells)
Experiment: Cell based Phospho-STAT1 assay (IFNγ-stimulated A549 cells, AlphaLISA)
Details: Homo sapiens, A549, A549 cells, phospho-STAT1 after IFNγ stimulation
Procedure: Determine Inhibitor Activity Against CDK8 in Cell Based Phospho-STAT1 Assay
This assay measures the phosphorylation of the CDK8 substrate STAT1 following Interferon-gamma (IFNγ) stimulation^1. The lung carcinoma cell line A549 is seeded in a 96 well plate in 50 μL of culture media at 5×10^4 cells/well and incubated at 37° C. overnight. Serial dilutions of compounds (in total volume of 50 μL culture media) are added to the cells and incubated at 37° C. for one hour. Human IFNγ (R&D Systems) is added to the cells at a 10 ng/mL final concentration. 4 wells containing DMSO treated cells stimulated with IFNγ serve as high controls and 4 wells containing DMSO treated unstimulated cells serve as low controls. After 30 minute IFNγ stimulation at 37° C., the culture media is removed and 50 μL of 1×AlphaLISA lysis buffer (PerkinElmer GA, USA) is added to each well. 5 μL cell lysate is transferred to a 384 well AlphaPlate (PerkinElmer GA, USA) and 5 μL containing 0.156 nM Phospho-STAT1 (Ser727) rabbit monoclonal antibody (Cell Signaling Technology), 0.156 nM Mouse Anti-STAT1 antibody (BD Transduction Laboratories), and 10 μg/mL Anti-rabbit IgG AlphaLISA acceptor beads (PerkinElmer GA, USA) diluted in 1× AlphaLISA immunoassay buffer (PerkinElmer GA, USA) is added to the cell lysates and incubated at room temperature for 90 minutes. 5 μL Anti-Mouse IgG Alpha donor beads diluted in 1× AlphaLISA immunoassay buffer (PerkinElmer GA, USA) is added to the reaction mixture and incubated at room temperature for 90 minutes. Upon excitation of these beads with laser light at 680 nm, singlet oxygen is produced. This singlet oxygen is rapidly quenched, unless the AlphaLISA Anti-Rabbit IgG acceptor beads are in close proximity, in which case a proximity signal can be measured at […]. In the presence of cellular CDK8 catalytic activity, there is a very strong proximity signal. Selective CDK8 inhibitors affect a decrease in this proximity signal through a decrease in phosphorylation of STAT1 at serine 727. The percentage inhibition at individual concentrations relative to high and low controls is calculated. The data are analyzed by using nonlinear regression to generate IC50 values.

Compound | IC50 [nM]
Cc1noc(-c2ccc(-c3cnn4cccc(N5CCC(C#N)(c6ccccn6)CC5)c34)cc2)n1 [Compound P-0351, 1-(3-(4-(3-methyl-1,2,4-oxadiazol-5-yl)phenyl)pyrazolo[1,5-a]pyridin-4-yl)-4-(pyridin-2-yl)piperidine-4-carbonitrile] | 100 to 1000
Cn1ncc2ccc(-c3cnn4cccc(N5CCC(C#N)(c6ccccn6)CC5)c34)cc21 [Compound P-0352, 1-(3-(1-methyl-1H-indazol-6-yl)pyrazolo[1,5-a]pyridin-4-yl)-4-(pyridin-2-yl)piperidine-4-carbonitrile] | 100 to 1000
Cn1cc(C#Cc2cnc3cccc(N4CCC5(CC4)COC5)n23)cn1 [Compound P-0354, 7-(3-((1-methyl-1H-pyrazol-4-yl)ethynyl)imidazo[1,2-a]pyridin-5-yl)-2-oxa-7-azaspiro[3.5]nonane] | 1000 to 10000
CC(C)(C#N)COc1cccc2ncc(-c3ccc(-c4cnn(C(F)F)c4)cc3)n12 [Compound P-0355, 3-((3-(4-(1-(difluoromethyl)-1H-pyrazol-4-yl)phenyl)imidazo[1,2-a]pyridin-5-yl)oxy)-2,2-dimethylpropanenitrile] | 100 to 1000
CN1CCN(C(=O)c2ccc3cc(-c4cnn5cccc(C6=CCC(C#N)CC6)c45)ccc3c2)CC1 (stereo not shown) [Compound P-0356, 4-(3-(6-(4-methylpiperazine-1-carbonyl)naphthalen-2-yl)pyrazolo[1,5-a]pyridin-4-yl)cyclohex-3-ene-1-carbonitrile] | 0.1 to 100
Cn1ncc2cc(-c3cnc4[nH]ccc4c3N3CCC(C#N)CC3)ccc21 [Compound P-0357, 1-[5-(1-methylindazol-5-yl)-1H-pyrrolo[2,3-b]pyridin-4-yl]piperidine-4-carbonitrile] | 0.1 to 100
Cn1cc(-c2ccc(-c3cnc4[nH]cc(Cl)c4c3N3CCC(C#N)CC3)cc2)cn1 [Compound P-0360, 1-(3-chloro-5-(4-(1-methyl-1H-pyrazol-4-yl)phenyl)-1H-pyrrolo[2,3-b]pyridin-4-yl)piperidine-4-carbonitrile] | 0.1 to 100
Cn1ncc2cc(-c3cnc4cccc(N5CCC(C#N)CC5)n34)ccc21 [Compound P-0361, 1-(3-(1-methyl-1H-indazol-5-yl)imidazo[1,2-a]pyridin-5-yl)piperidine-4-carbonitrile] | 0.1 to 100
Cn1ncc2cc(-c3cnn4cccc(N5CCC(C#N)(c6ccccn6)CC5)c34)ccc21 [Compound P-0364, 1-(3-(1-methyl-1H-indazol-5-yl)pyrazolo[1,5-a]pyridin-4-yl)-4-(pyridin-2-yl)piperidine-4-carbonitrile] | 0.1 to 100
Cn1cc(-c2ccc(-c3cnn4cccc(N5CCC(C#N)(c6ccccn6)CC5)c34)cc2)cn1 [Compound P-0365, 1-(3-(4-(1-methyl-1H-pyrazol-4-yl)phenyl)pyrazolo[1,5-a]pyridin-4-yl)-4-(pyridin-2-yl)piperidine-4-carbonitrile] | 0.1 to 100
Cn1ncc2cc(-c3cnc4cccc(C5=CCC(C#N)CC5)n34)ccc21 (stereo not shown) [Compound P-0367, 4-(3-(1-methyl-1H-indazol-5-yl)imidazo[1,2-a]pyridin-5-yl)cyclohex-3-ene-1-carbonitrile] | 0.1 to 100
Cn1cc(-c2ccc(-c3cnn4cccc(C#CC5(O)COC5)c34)cc2)cn1 [Compound P-0368, 3-((3-(4-(1-methyl-1H-pyrazol-4-yl)phenyl)pyrazolo[1,5-a]pyridin-4-yl)ethynyl)oxetan-3-ol] | 0.1 to 100
NC(=O)C1CC=C(c2cccc3ncc(-c4ccc(OCCN5CCCCC5)cc4)n23)CC1 (stereo not shown) [Compound P-0369, 4-(3-(4-(2-(piperidin-1-yl)ethoxy)phenyl)imidazo[1,2-a]pyridin-5-yl)cyclohex-3-ene-1-carboxamide] | 1000 to 10000
CC(C)(O)C#Cc1cccn2ncc(-c3ccc(-c4cnn(C(F)F)c4)cc3)c12 [Compound P-0370, 4-(3-(4-(1-(difluoromethyl)-1H-pyrazol-4-yl)phenyl)pyrazolo[1,5-a]pyridin-4-yl)-2-methylbut-3-yn-2-ol] | 0.1 to 100
FC(F)n1cc(-c2ccc(-c3cccn4ncc(-c5ccc(-c6cnn(C(F)F)c6)cc5)c34)cc2)cn1 [Compound P-0371, 3,4-bis(4-(1-(difluoromethyl)-1H-pyrazol-4-yl)phenyl)pyrazolo[1,5-a]pyridine] | 1000 to 10000
Cn1cc(-c2ccc(-c3cnc4cccc(OC5CCC(F)(F)CC5)n34)cc2)cn1 [Compound P-0372, 5-((4,4-difluorocyclohexyl)oxy)-3-(4-(1-methyl-1H-pyrazol-4-yl)phenyl)imidazo[1,2-a]pyridine] | 1000 to 10000

Compound | IC50 [nM]
CCC(O)(C#Cc1cccn2ncc(-c3ccc(-c4cnn(C)c4)cc3)c12)CC [Compound P-0373, 3-ethyl-1-(3-(4-(1-methyl-1H-pyrazol-4-yl)phenyl)pyrazolo[1,5-a]pyridin-4-yl)pent-1-yn-3-ol] | 100 to 1000
Cn1cc(C#Cc2cnc3cccc(C4=CCC(C#N)CC4)n23)cn1 (stereo not shown) [Compound P-0374, 4-(3-((1-methyl-1H-pyrazol-4-yl)ethynyl)imidazo[1,2-a]pyridin-5-yl)cyclohex-3-ene-1-carbonitrile] | 0.1 to 100
Cn1cc(-c2ccc(-c3cnc4cccc(C#CC(C)(C)O)n34)cc2)cn1 [Compound P-0375, 2-methyl-4-(3-(4-(1-methyl-1H-pyrazol-4-yl)phenyl)imidazo[1,2-a]pyridin-5-yl)but-3-yn-2-ol] | 0.1 to 100
Cn1cncc1C#Cc1cnc2cccc(N3CCC4(CC3)C(=O)Nc3ccccc34)n12 [Compound P-0376, 1′-[3-[2-(3-methylimidazol-4-yl)ethynyl]imidazo[1,2-a]pyridin-5-yl]spiro[indoline-3,4′-piperidine]-2-one] | 100 to 1000
Cn1cc(-c2ccc(-c3cnc4cccc(NCc5cccnc5)n34)cc2)cn1 [Compound P-0377, 3-(4-(1-methyl-1H-pyrazol-4-yl)phenyl)-N-(pyridin-3-ylmethyl)imidazo[1,2-a]pyridin-5-amine] | 1000 to 10000
Cn1cc(-c2ccc(-c3cnc4cccc(N5CCC(C(N)=O)C5)n34)cc2)cn1 (stereo not shown) [Compound P-0378, 1-(3-(4-(1-methyl-1H-pyrazol-4-yl)phenyl)imidazo[1,2-a]pyridin-5-yl)pyrrolidine-3-carboxamide] | 100 to 1000
CNC(=O)C1CCN(c2cccc3ncc(-c4ccc(-c5cnn(C)c5)cc4)n23)CC1 [Compound P-0380, N-methyl-1-(3-(4-(1-methyl-1H-pyrazol-4-yl)phenyl)imidazo[1,2-a]pyridin-5-yl)piperidine-4-carboxamide] | 1000 to 10000
Cn1cc(-c2ccc(-c3cnc4cccc(N5CCCCC5)n34)cc2)cn1 [Compound P-0381, 3-(4-(1-methyl-1H-pyrazol-4-yl)phenyl)-5-(piperidin-1-yl)imidazo[1,2-a]pyridine] | 1000 to 10000
Cn1cc(-c2ccc(-c3cnc4cccc(N5CCN(c6nccs6)CC5)n34)cc2)cn1 [Compound P-0383, 2-(4-(3-(4-(1-methyl-1H-pyrazol-4-yl)phenyl)imidazo[1,2-a]pyridin-5-yl)piperazin-1-yl)thiazole] | 1000 to 10000
Cn1cc(-c2ccc(-c3cnc4cccc(N5CCC(C(O)c6cccnc6)CC5)n34)cc2)cn1 (stereo not shown) [Compound P-0384, (1-(3-(4-(1-methyl-1H-pyrazol-4-yl)phenyl)imidazo[1,2-a]pyridin-5-yl)piperidin-4-yl)(pyridin-3-yl)methanol] | 1000 to 10000
Cn1cc(-c2ccc(-c3cnc4cccc(N5CCN(c6ccccn6)CC5)n34)cc2)cn1 [Compound P-0385, 3-(4-(1-methyl-1H-pyrazol-4-yl)phenyl)-5-(4-(pyridin-2-yl)piperazin-1-yl)imidazo[1,2-a]pyridine] | 1000 to 10000
Cn1cc(-c2ccc(-c3cnc4cccc(N5CCN(c6cccnc6)CC5)n34)cc2)cn1 [Compound P-0386, 3-(4-(1-methyl-1H-pyrazol-4-yl)phenyl)-5-(4-(pyridin-3-yl)piperazin-1-yl)imidazo[1,2-a]pyridine] | 0.1 to 100
Cn1cc(-c2ccc(-c3cnc4cccc(NC5CCOCC5)n34)cc2)cn1 [Compound P-0388, 3-(4-(1-methyl-1H-pyrazol-4-yl)phenyl)-N-(tetrahydro-2H-pyran-4-yl)imidazo[1,2-a]pyridin-5-amine] | 100 to 1000
Cn1cc(-c2ccc(-c3cnc4cccc(NCc5ccccc5)n34)cc2)cn1 [Compound P-0389, N-benzyl-3-(4-(1-methyl-1H-pyrazol-4-yl)phenyl)imidazo[1,2-a]pyridin-5-amine] | 1000 to 10000
Cn1cc(-c2ccc(-c3cnc4cccc(NCCCO)n34)cc2)cn1 [Compound P-0390, 3-((3-(4-(1-methyl-1H-pyrazol-4-yl)phenyl)imidazo[1,2-a]pyridin-5-yl)amino)propan-1-ol] | 100 to 1000
